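How tested: cells in 96-well plates exposed to compound for 48 hours at five concentrations. Here, GI50 denotes the concentration required for 50% inhibition of growth.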 Activity calls are given as the source filed them. Cut-off read from the data, not from the text of the source: active = GI50 up to about 1.1 µM and inactive = higher.
Legend:
Experiment in all cases: NCI-60 cell line screen, 48 h
A498 = test system: A498
DU-145 = test system: DU-145
EKVX = test system: EKVX
HCT-116 = test system: HCT-116
KM12 = test system: KM12
LOX IMVI = test system: LOX IMVI
MCF7 = test system: MCF7
MDA-N = test system: MDA-N
NCI/ADR-RES = test system: NCI/ADR-RES
RXF 393 = test system: RXF 393
SF-539 = test system: SF-539
SNB-75 = test system: SNB-75
UACC-62 = test system: UACC-62
UO-31 = test system: UO-31
DMS-114 = test system: DMS-114
M19-MEL = test system: M19-MEL
SNB-78 = test system: SNB-78
XF498 = test system: XF498
KM-20L2 = test system: KM-20L2
BT-549 = test system: BT-549

Measured: GI50

c1ccc(CSC2(SCc3ccccc3)CCCC2)cc1
inactive: A498 > 10 µM | DU-145 > 10 µM | EKVX > 10 µM | HCT-116 > 10 µM | KM12 > 10 µM | LOX IMVI > 10 µM | MCF7 > 10 µM | MDA-N > 10 µM | NCI/ADR-RES > 10 µM | RXF 393 > 10 µM | SF-539 > 10 µM | SNB-75 > 10 µM | UACC-62 > 10 µM | UO-31 > 10 µM

CC1(C)OP23(NC(=O)OC2(C(F)(F)F)c2ccccc2O3)OC1(C)C (stereo not given)
inactive: DMS-114 > 100 µM | HCT-116 > 100 µM | KM12 > 100 µM | LOX IMVI > 100 µM | M19-MEL > 100 µM | RXF 393 > 100 µM | SF-539 > 100 µM | SNB-75 > 100 µM | SNB-78 > 100 µM | UACC-62 > 100 µM | UO-31 > 100 µM | XF498 > 100 µM

C[Si](C)(C)/C=C/CN1C(=O)CCC1=O
inactive: A498 > 100 µM | DMS-114 > 100 µM | EKVX > 100 µM | HCT-116 > 100 µM | KM-20L2 > 100 µM | KM12 > 100 µM | LOX IMVI > 100 µM | M19-MEL > 100 µM | SF-539 > 100 µM | SNB-75 83.2 µM | SNB-78 > 100 µM | UACC-62 > 100 µM | UO-31 > 100 µM | XF498 > 100 µM

COc1cc(C2C(C(=O)O)=C(CO)Oc3cc4c(cc32)OCO4)cc(OC)c1O (stereo not given)
inactive: DMS-114 > 100 µM | EKVX > 100 µM | HCT-116 > 100 µM | KM-20L2 > 100 µM | LOX IMVI > 100 µM | SF-539 > 100 µM | SNB-75 > 100 µM | SNB-78 > 100 µM | UACC-62 > 100 µM | UO-31 > 100 µM

c1ccc(C(NC2=NCCO2)c2ccccc2)cc1
inactive: A498 5.75 µM | DU-145 > 10 µM | EKVX > 10 µM | HCT-116 > 10 µM | KM12 > 10 µM | LOX IMVI > 10 µM | MCF7 6 µM | MDA-N > 10 µM | NCI/ADR-RES > 10 µM | RXF 393 > 10 µM | SF-539 > 10 µM | SNB-75 > 10 µM | UACC-62 > 10 µM | UO-31 > 10 µM

O=c1[nH]c(=O)n(C2CC(O)C(CO)O2)cc1C(OCC(F)(F)F)OCC(F)(F)F (stereo not given)
inactive: A498 > 100 µM | DMS-114 > 100 µM | EKVX > 100 µM | KM-20L2 > 100 µM | KM12 > 100 µM | LOX IMVI > 100 µM | M19-MEL > 100 µM | RXF 393 > 100 µM | SF-539 > 100 µM | SNB-75 > 100 µM | SNB-78 > 100 µM | UACC-62 > 100 µM | UO-31 > 100 µM | XF498 > 100 µM

Cc1nc2ccccc2n1C(=O)c1c(F)c(F)c(F)c(F)c1F
inactive: A498 20.3 µM | BT-549 21 µM | DU-145 26.5 µM | EKVX 28.3 µM | HCT-116 4.14 µM | KM12 3.13 µM | LOX IMVI 8.93 µM | MCF7 5.12 µM | MDA-N 8.69 µM | NCI/ADR-RES 17.5 µM | RXF 393 15.5 µM | SF-539 11.6 µM | SNB-75 25.4 µM | UACC-62 16.1 µM | UO-31 17 µM

CN(C)C(=S)/N=c1\ssc(=S)n1C
inactive: A498 > 100 µM | DMS-114 > 100 µM | EKVX > 100 µM | HCT-116 > 100 µM | KM-20L2 > 100 µM | KM12 > 100 µM | M19-MEL > 100 µM | RXF 393 > 100 µM | SF-539 > 100 µM | SNB-75 > 100 µM | SNB-78 > 100 µM | UACC-62 > 100 µM | UO-31 > 100 µM | XF498 > 100 µM

CC(=O)OC(OC(C)=O)n1cc(C=O)c2ccccc21
inactive: A498 36.7 µM | DU-145 > 100 µM | HCT-116 > 100 µM | LOX IMVI > 100 µM | MCF7 25.9 µM | NCI/ADR-RES > 100 µM | SNB-75 > 10 µM | UO-31 63.5 µM

ClCC1(CCl)COC1
inactive: A498 > 100 µM | DU-145 > 100 µM | HCT-116 > 100 µM | KM12 > 100 µM | LOX IMVI > 100 µM | MCF7 > 100 µM | MDA-N > 100 µM | NCI/ADR-RES > 100 µM | RXF 393 > 100 µM | SNB-75 > 100 µM | UO-31 > 100 µM

Cc1cc(C)n(C(=C(C(Cl)=C(Cl)Cl)[N+](=O)[O-])n2nc(C)cc2C)n1
inactive: A498 2.86 µM | BT-549 4.56 µM | DU-145 4.12 µM | EKVX 2.58 µM | HCT-116 3.65 µM | KM12 3.48 µM | LOX IMVI 2.1 µM | MCF7 2.55 µM | MDA-N 4.06 µM | NCI/ADR-RES 3.78 µM | RXF 393 3.79 µM | SF-539 4.59 µM | SNB-75 6.25 µM | UACC-62 4.06 µM | UO-31 3.18 µM

CN(/N=C1\C(=O)Nc2ccccc21)c1ccccc1
inactive: A498 > 100 µM | DU-145 > 100 µM | EKVX 29.8 µM | HCT-116 57.8 µM | KM12 29.6 µM | LOX IMVI > 100 µM | MCF7 15.3 µM | MDA-N 40.6 µM | SF-539 41.2 µM | SNB-75 2.32 µM | UACC-62 > 100 µM | UO-31 11.8 µM

CN(C)CCNC(=O)c1cccc2ccc(-c3ccc(F)cc3)nc12
inactive: A498 7.1 µM | DMS-114 5.48 µM | HCT-116 3.03 µM | KM-20L2 4.22 µM | KM12 6.67 µM | LOX IMVI 3.32 µM | M19-MEL 4.33 µM | MCF7 3.56 µM | NCI/ADR-RES 3.18 µM | RXF 393 7.38 µM | SF-539 4.06 µM | SNB-75 6.95 µM | SNB-78 8.85 µM | UACC-62 3.95 µM | UO-31 2.61 µM | XF498 2.94 µM

Cc1cnc(/N=c2\sc(C)cn2-c2ncc(C)s2)s1
inactive: BT-549 > 100 µM | DU-145 > 100 µM | EKVX > 100 µM | HCT-116 > 100 µM | KM12 > 100 µM | LOX IMVI > 100 µM | MCF7 > 100 µM | MDA-N > 100 µM | NCI/ADR-RES > 100 µM | RXF 393 > 100 µM | SF-539 > 100 µM | SNB-75 71.3 µM | UACC-62 > 100 µM | UO-31 > 100 µM

N#C/N=N/c1cc(Cl)c(/N=N/C#N)cc1Cl
inactive: A498 > 100 µM | DMS-114 > 100 µM | EKVX > 100 µM | HCT-116 > 100 µM | KM-20L2 > 100 µM | KM12 > 100 µM | LOX IMVI 38.6 µM | M19-MEL > 100 µM | RXF 393 > 100 µM | SF-539 > 100 µM | SNB-75 51.9 µM | SNB-78 > 100 µM | UACC-62 > 100 µM | XF498 > 100 µM

CC(=O)C1CC[C@@H]2[C@H](CC[C@]3(C)[C@@H](O)CC[C@@H]23)[C@H]1C(=O)O (stereo not given in full)
inactive: A498 > 100 µM | BT-549 > 100 µM | EKVX > 100 µM | KM12 > 100 µM | MCF7 > 100 µM | NCI/ADR-RES > 100 µM | RXF 393 > 100 µM | SF-539 > 100 µM | UACC-62 > 100 µM | UO-31 > 100 µM

COC(=O)c1cn(CC(O)CCl)nn1 (stereo not given)
inactive: A498 > 100 µM | BT-549 > 100 µM | DU-145 > 100 µM | EKVX > 100 µM | KM12 > 100 µM | LOX IMVI > 100 µM | MCF7 > 100 µM | MDA-N > 100 µM | NCI/ADR-RES > 100 µM | RXF 393 > 100 µM | SF-539 > 100 µM | SNB-75 > 100 µM | UO-31 > 100 µM

CC(=O)OCC1OC(n2c3c(c(-c4ccco4)c(C#N)c2=S)CCC3)C(OC(C)=O)C(OC(C)=O)C1OC(C)=O (stereo not given)
inactive: BT-549 43.9 µM | DU-145 > 100 µM | HCT-116 > 100 µM | KM12 > 100 µM | LOX IMVI 60.1 µM | MCF7 63.8 µM | MDA-N > 100 µM | NCI/ADR-RES 37.8 µM | RXF 393 20.2 µM | SF-539 > 100 µM | SNB-75 23.4 µM | UACC-62 42.2 µM | UO-31 80.7 µM

O=C(O)C12CCCCC1CCCC2 (stereo not given)
inactive: A498 > 100 µM | DMS-114 > 100 µM | EKVX > 100 µM | HCT-116 > 100 µM | KM-20L2 > 100 µM | KM12 > 100 µM | LOX IMVI > 100 µM | M19-MEL > 100 µM | SF-539 > 100 µM | SNB-75 98.2 µM | UACC-62 > 100 µM | XF498 > 100 µM

COc1c(Br)cc(CC(N)=O)c(O)c1Br
inactive: A498 > 100 µM | DMS-114 > 100 µM | EKVX > 100 µM | HCT-116 > 100 µM | KM-20L2 > 100 µM | KM12 > 100 µM | LOX IMVI > 100 µM | M19-MEL > 100 µM | RXF 393 > 100 µM | SF-539 > 100 µM | SNB-75 > 100 µM | SNB-78 > 100 µM | UACC-62 > 100 µM | UO-31 > 100 µM | XF498 > 100 µM

From ChEMBL document CHEMBL1201862, “PubChem BioAssay data set” (2004)
